Results taken from BindingDB's records for doi:10.3109/14756369709035816 (R & D, Zambon Group, 1997).

Biological target: T1, Neprilysin (Rattus norvegicus, UniProt P07861)
T1 sequence (P07861 whole entry): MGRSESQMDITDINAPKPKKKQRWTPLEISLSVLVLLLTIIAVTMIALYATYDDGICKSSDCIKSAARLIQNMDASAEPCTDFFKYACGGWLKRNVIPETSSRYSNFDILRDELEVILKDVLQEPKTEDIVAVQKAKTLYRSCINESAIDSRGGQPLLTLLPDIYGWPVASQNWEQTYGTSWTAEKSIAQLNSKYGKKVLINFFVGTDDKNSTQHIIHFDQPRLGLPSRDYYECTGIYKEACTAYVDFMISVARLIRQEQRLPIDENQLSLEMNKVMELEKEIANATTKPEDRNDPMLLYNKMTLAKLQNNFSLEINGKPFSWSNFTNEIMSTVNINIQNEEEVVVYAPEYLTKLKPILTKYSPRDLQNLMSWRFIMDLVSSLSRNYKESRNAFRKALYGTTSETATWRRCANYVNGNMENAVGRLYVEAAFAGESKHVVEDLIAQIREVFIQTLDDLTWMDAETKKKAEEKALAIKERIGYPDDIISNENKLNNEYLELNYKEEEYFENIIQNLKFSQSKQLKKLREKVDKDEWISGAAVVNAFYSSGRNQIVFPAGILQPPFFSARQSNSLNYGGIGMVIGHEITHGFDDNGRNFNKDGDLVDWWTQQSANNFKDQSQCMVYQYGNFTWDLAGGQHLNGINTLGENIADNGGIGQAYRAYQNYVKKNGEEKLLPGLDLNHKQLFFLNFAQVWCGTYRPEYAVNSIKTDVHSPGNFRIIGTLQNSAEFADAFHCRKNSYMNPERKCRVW
Assay: Enzyme Inhibition Assay
Conditions: 25 °C
From the text: Enzyme inhibition assay using neutrol endopeptiase EC 3.4.24.11 (NEP).

SMILES | IC50 [nM]
CC(CS)C(=O)Nc1cncc(C(=O)O)c1 (configuration not stated) [NEP inhibitor, 6g] | 60
O=C(O)c1cncc(NC(=O)C(CS)Cc2ccccc2)c1 (configuration not stated) [NEP inhibitor, 6h] | 5
O=C(O)c1ccnc(NC(=O)C(CS)Cc2ccccc2)c1 (configuration not stated) [NEP inhibitor, 6i] | 3
O=C(O)c1ccnc(NC(=O)C(CS)Cc2ccc3c(c2)OCO3)c1 (configuration not stated) [NEP inhibitor, 6j] | 5.5
O=C(O)c1cc(NC(=O)C(CS)Cc2ccccc2)cs1 (configuration not stated) [NEP inhibitor, 6k] | 2
O=C(O)c1cc(NC(=O)C(CS)Cc2cccnc2)cs1 (configuration not stated) [NEP inhibitor, 6l] | 13
O=C(O)c1cc(NC(=O)C(CS)Cc2ccccc2)c[nH]1 (configuration not stated) [NEP inhibitor, 6m] | 2
O=C(O)c1cc(NC(=O)C(CS)Cc2ccc(Cl)cc2)c[nH]1 (configuration not stated) [NEP inhibitor, 6n] | 2
O=C(O)c1csc(NC(=O)C(CS)Cc2ccccc2)n1 (configuration not stated) [NEP inhibitor, 6p] | 9
O=C(Nc1ccn[nH]1)C(CS)Cc1ccccc1 (configuration not stated) [NEP inhibitor, 6q] | 23
CN(C)C(=O)c1ccnc(NC(=O)C(CS)Cc2ccccc2)c1 (configuration not stated) [NEP inhibitor, 6r] | 5
O=C(Nc1ccccc1)c1ccnc(NC(=O)C(CS)Cc2ccccc2)c1 (configuration not stated) [NEP inhibitor, 6s] | 250
